Read-outs that look alike come from different tables or passages of the source.
Experiments:
[1] = target: NahK_ATCC15697 (Bifidobacterium longum, UniProt B7GN78); test: Substrate specificity CE assay, NahK_ATCC15697; format: biochemical, Bifidobacterium infantis
Experimental: (§1) Substrates specificity assays. GlcNAc, GalNAc, and their derivatives (1 mM) were used as substrates in the presence of ATP (1 mM) and MgCl2 (5 mM) in a Tris-HCl buffer (pH 8.0, 200 mM) to analyze the substrate specificity of NahKs. Two concentrations (0.75 μM or 15 μM) of each NahK were used and the reactions were allowed to proceed for 10 min (for 0.75 μM NahK) or 30 min (for 15 μM NahK) at 37° C. […] All other conditions were the same as for GlcNAc, GalNAc, and their derivatives.
(§2) Capillary electrophoresis (CE) assays. Based on the detection of ADP and ATP in the reaction mixture by a UV detector, a capillary electrophoresis-based method was developed to directly measure the formation of ADP and N-acetylhexosamine-1-phosphate from ATP and N-acetylhexosamine for characterizing the activities of NahKs.

[2] = target: NahK_ATCC55813 (Bifidobacterium longum subsp. longum, UniProt E8MF12, D7V/R348H); format: biochemical; set-up: made in house; host or cells: E. coli BL21(DE3)
Experimental: as §1, §2

[3] = test system: NahK; test: Kinase reaction monitored by CE (ATP to ADP), NahK; format: biochemical, Bifidobacterium infantis; details: monosaccharide 15 mM, ATP 18 mM, 37° C.
Experimental: Capillary electrophoresis (CE) and thin-layer chromatograph (TLC) assays for kinase reactions. Kinase reactions were carried out at 37° C. in a total volume of 30 μL in Tris-HCl buffer (100 mM, pH 8.0) containing monosaccharide (15 mM), ATP (18 mM, 1.2 eq.), MgCl2 (10 mM), and a kinase (6 μg). These conditions were similar to those used for preparative-scale synthesis. After 1 hr, 4 hr, and 24 hr, an aliquot of 8 μL was withdrawn from each reaction mixture, boiled in a water bath for 5 min and stored at −20° C. until being analyzed by capillary electrophoresis (CE) and TLC. For TLC analysis, 0.5 μL of each sample was directly spotted on TLC plates, developed using suitable developing solvents, and stained with anisaldehyde sugar stain. For CE analysis, 1.5 μL of each sample was diluted into 30 μL and subjected to CE analysis as described above for pH profile studies.
General methods for compound purification and characterization. Chemicals were purchased and used without further purification. ^1H NMR and ^13C NMR spectra were recorded on a Varian Mercury 600 NMR spectrometer. High resolution electrospray ionization (ESI) mass spectra were obtained in negative mode using Thermo Electron LTQ-Orbitrap mass spectrometer. Silica gel 60 Å (Sorbent Technologies) was used for flash column chromatography. Thin-layer chromatography (TLC) was performed on silica gel plates 60 GF254 (Sorbent Technologies) using anisaldehyde sugar stain for detection. Gel filtration chromatography was performed with a column (100 cm×2.5 cm) packed with BioGel P-2 Fine resins (Bio-Rad). GlcN3 (T6-9) (Lau K, Thon, V, Yu H, Ding L, Chen Y, Muthana M M, Wong D, Huang R, and Chen X. Chem. Commun. 2010, 46, 6066-6068), ManF (T6-11) (Burkart M D, Zhang Z, Hung S-C, and Wong C-H. J. Am. Chem. Soc. 1997, 119, 11743-11746; Cao H, Li Y, Lau K, Muthana S, Yu H, Cheng J, Chokhawala H A, Sugiarto G, Zhang L, and Chen X. Org. Biomol. Chem. 2009, 7, 5137-5145), GalN3 (T6-4) and ManN3 (T6-14) (Yu H, Yu H, Karpel R, cand Chen X. Bioorg. Med. Chem. 2004, 12, 6427-6435) were previously synthesized using reported methods. NahK_ATCC15697, EcGalK, SpGalK, and PmPpA were overexpressed as described previously.

[4] = 0.75 μM enzyme, 10 min at 37° C., substrate 1 mM, ATP 1 mM
[5] = 15 μM enzyme, 30 min at 37° C., substrate 1 mM, ATP 1 mM (Table 2)
[6] = Glc, Gal, Man, ManNAc and derivatives, enzyme 15, 37° C. for 30 min (Table 3)
[7] = Glc, Gal, Man, ManNAc and derivatives, enzyme 15, 37° C. for 30 min (Table 3), listed as drawing 49

Structure (SMILES)	Percentage Conversion [1, 4] [%]	Percentage Conversion [1, 5] [%]	Percentage Conversion [2, 4] [%]	Percentage Conversion [2, 5] [%]	Percentage Conversion [1, 6] [%]	Percentage Conversion [2, 6] [%]	further results
[N-]=[N+]=NC1C(O)OC(COS(=O)(=O)O)[C@@H](O)[C@@H]1O (some centres unmarked) [6-O-sulfo-2-azido-2-deoxy glucose]	0	6.9 ± 0.1	0	4.4 ± 0.1			
CC(=O)NC1C(O)OC(CO)[C@@H](O)[C@@H]1O (some centres unmarked) [GlcNAc, N-acetylglucosamine]	35.4 ± 0.1		42.3 ± 0.2				ATP Conversion ([3]; 1 hr): 72.6%; ATP Conversion ([3]; 4 hr): 84.6%; ATP Conversion ([3]; 24 hr): 85.5%
[N-]=[N+]=NCC(=O)NC1C(O)OC(CO)[C@H](O)C1O (some centres unmarked) [GalNAcN3]	9.9 ± 0.6		21.0 ± 1.2				
N[C@@H]1C(O)O[C@H](CO)[C@@H](O)[C@@H]1O (some centres unmarked) [T6-13 ManNH2, mannosamine]							ATP Conversion ([3]; 1 hr): 10.3%; ATP Conversion ([3]; 4 hr): 22.8%; ATP Conversion ([3]; 24 hr): 58.0%
CCCC(=O)NC1C(O)OC(CO)[C@H](O)C1O (some centres unmarked) [GalNBu]	12.1 ± 0.3		24.0 ± 0.1				
[N-]=[N+]=NC1C(O)OC(CO)[C@@H](O)C1O (some centres unmarked) [2N3-Man]					53.3 ± 0.1	40.2 ± 0.2	ATP Conversion ([3]; 1 hr): 34.9%; ATP Conversion ([3]; 4 hr): 65.9%; ATP Conversion ([3]; 24 hr): 76.4%
CC(=O)NC1C(O)OC(C)[C@@H](O)C1O (some centres unmarked) [6-deoxy-GlcNAc]	4.4 ± 1.2	41.8 ± 0.3	2.1 ± 0.2	36.3 ± 0.3			
OCC1CC(O)C(O)C(O)O1 (centres unmarked) [4-deoxyMan]					37.1 ± 0.2	23.9 ± 0.1	
O=C(NC1C(O)OC(CO)[C@@H](O)C1O)C(F)(F)F (some centres unmarked) [GlcNTFA]	10.7 ± 0.9		16.2 ± 0.9				
COC1C(O)OC(CO)[C@@H](O)C1O (some centres unmarked) [2Me-Man]					9.4 ± 0.5	0	
CCCC(=O)NC1C(O)OC(CO)[C@@H](O)C1O (some centres unmarked) [GlcNBu]	20.9 ± 0.6		35.0 ± 2.0				
O=C(NC1C(O)OC(CO)[C@H](O)C1O)C(F)(F)F (some centres unmarked) [GalNTFA]	11.2 ± 1.6		21.8 ± 0.2				
CC(=O)NC1C(O)OC(COS(=O)(=O)O)[C@@H](O)C1O (some centres unmarked) [6-O-sulfo-GlcNAc]	0	11.7 ± 0.2	0	6.6 ± 0.1			
O=C(CO)NC1C(O)OC(CO)[C@@H](O)C1O (some centres unmarked)					7.6 ± 0.1	5.4 ± 0.2	
OCC1OC(O)C(O)[C@@H](O)[C@@H]1O (some centres unmarked) [Man, mannose]							Percentage Conversion [1, 7]: 68.0 ± 1.7%; ATP Conversion ([3]; 1 hr, listed as T6-11 Man): 29.6%; ATP Conversion ([3]; 4 hr, listed as T6-11 Man): 69.3%; ATP Conversion ([3]; 24 hr, listed as T6-11 Man): 75.1%; Percentage Conversion [2, 7]: 37.1 ± 0.4%
[N-]=[N+]=N[C@@H](C=O)[C@@H](OS(=O)(=O)O)[C@H](O)[C@H](O)CO [3-O-sulfo-2-azido-2-deoxy glucose]	0	4.9 ± 0.1	0	3.9 ± 0.1			
O=C(NC1C(O)OC(CO)[C@@H](O)C1O)c1ccccc1 (some centres unmarked) [GlcNBz]	10.3 ± 0.4		5.2 ± 0.2				
NC1C(O)OC(CO)[C@@H](O)[C@@H]1O (some centres unmarked) [2-amino-2-deoxy-glucose]	0	15.0 ± 0.1	0	8.4 ± 0.1			ATP Conversion ([3]; 1 hr): 11.9%; ATP Conversion ([3]; 4 hr): 28.0%; ATP Conversion ([3]; 24 hr): 67.1%
[N-]=[N+]=NCC(=O)NC1C(O)OC(CO)[C@@H](O)C1O (some centres unmarked) [GlcNAcN3]	11.5 ± 1.0		22.8 ± 0.4				
O=C(CF)NC1C(O)OC(CO)[C@@H](O)C1O (some centres unmarked)					12.0 ± 0.1	9.1 ± 0.2	
CC(=O)N[C@@H]1C(O)O[C@H](CO)[C@@H](O)[C@@H]1O (some centres unmarked) [N-acetylmannosamine]					8.9 ± 0.1	5.5 ± 0.1	ATP Conversion ([3]; 1 hr): 11.4%; ATP Conversion ([3]; 4 hr): 26.1%; ATP Conversion ([3]; 24 hr): 73.8%
CC(=O)NC1C(O)OC(CN=[N+]=[N-])[C@@H](O)C1O (some centres unmarked) [6-azido-6-deoxy-GlcNAc]	0	37.2 ± 0.5	0	23.4 ± 0.1			
O=S(=O)(O)NC1C(O)OC(CO)[C@@H](O)C1O (some centres unmarked) [2-N-sulfo-glucose]	0	6.4 ± 0.2	0	4.0 ± 0.1			
OCC1OC(O)C[C@@H](O)[C@@H]1O (some centres unmarked) [2-deoxy glucose]					44.8 ± 0.2	28.4 ± 0.1	ATP Conversion ([3]; 1 hr): 36.8%; ATP Conversion ([3]; 4 hr): 69.6%; ATP Conversion ([3]; 24 hr): 79.4%
[N-]=[N+]=NCC(=O)N[C@@H]1C(O)O[C@H](CO)[C@@H](O)[C@@H]1O (some centres unmarked) [N-azidoacetylmannosamine]					20.3 ± 0.3	18.6 ± 0.4	
O=C(NC1C(O)OC(COS(=O)(=O)O)[C@@H](O)C1O)C(F)(F)F (some centres unmarked) [6-O-sulfo-N-trifluoroacetyl glucosamine]	0	7.2 ± 0.1	0	3.3 ± 0.2			
COCC(=O)NC1C(O)OC(CO)[C@@H](O)C1O (some centres unmarked)					12.0 ± 0.4	7.4 ± 0.3	
O=C(NC1C(O)OC(CO)[C@H](O)C1O)c1ccccc1 (some centres unmarked) [GalNBz]	0	62.2 ± 1.0	0	51.9 ± 0.5			
COCC1OC(O)C(NC(C)=O)[C@@H](O)[C@@H]1O (some centres unmarked) [N-acetyl-6-O-methylmannosamine]					32.6 ± 0.1	28.9 ± 0.1	
